16 sequences from patent US7906484B2, “Complex for transferring an anionic substance into a cell” (Alnylam Pharmaceuticals, Inc., priority 2006, dated 2011) can be followed below.

No end group written: not given here.

For data set [1], the system named is E6AP mRNA in HCT116 cells. In words: siRNA AD-8724 delivery into HCT116 cells, inhibition of E6AP mRNA expression by bDNA assay. Format: cell-based, human. The conditions noted are these: siRNA AD-8724 250 nM, molar peptide/siRNA ratio 12.5:1. On the procedure:
All further experiments were carried out using HCT116 cells and inhibition of E6AP expression as readout.
HCT116-cells were obtained from the American Type Culture Collection (ATCC# CCL-247). They were cultured in McCoy's 5A medium (Biochrom AG, Berlin, Germany, Cat.# F1015) containing 10% fetal calf serum (FCS; Biochrom AG, Berlin, Germany, Cat.# S0115) and 2 mM L-Glutamin (Biochrom AG, Berlin, Germany, Cat.#: K0283) (standard growth medium). For incubation with peptide/siRNA, complexes, the medium was replaced by serum-free McCoy's 5A medium containing 2 mM L-Glutamin (serum free medium). After incubation with complexes for 4 h, McCoy's 5A medium containing 30% fetal calf serum and 2 mM L-Glutamin (triple FCS medium) was added to restore an overall 10% FCS in the medium.
The E6AP-specific siRNA denoted AD-8724 herein was used, having the following sequences: antisense strand: 5′-ucacauuccacguuaggugTsT-3′ (SEQ ID NO:51), sense strand 5′-caccuaacguggaaugugaTsT-3′; (SEQ ID NO:52; lower case letters: ribonucleotides; s: phosphorothioate backbone linkage). As a negative control, an siRNA specific for eGFP, denoted AD-5107 herein, was used, having the following sequences: antisense strand: 5′-aagucgugcugcuucauguggOMesuOMesc-3′ (SEQ ID NO:19), sense strand 5′-[…]-3′ (SEQ ID NO:18; lower case letters: ribonucleotides; subscript OMe: 2′-O-methyl-ribonucleotide; s: phosphorothioate backbone linkage). In addition to the non-specific control siRNA AD-5107, mock transfected cells treated with standard growth medium only were used as negative controls. As a positive control, AD-8724 was transfected into the cells using Lipofectamine2000™ (Invitrogen, Karlsruhe, Germany, Cat. No. 11668-019). As a further control, AD-5107 was transfected into cells using Lipofectamine2000™. All assays were performed in quadruplicates.
SiRNA/peptide complexes were prepared by mixing a solution of the siRNA in deionized water with a solution of the peptide in deionized water at the appropriate concentrations to give the desired ratio of siRNA/peptide at the desired concentration of the complex. The mixture was incubated at room temperature for 30 min and kept at 4° C. until use, and used within 24 h.
For transfections with siRNA/peptide complexes, 1.5×10^5 HCT116-cells per well in 150 μl standard growth medium were seeded into polystyrene 96 well plates and grown for 24 h at 37° C. in an atmosphere containing 5% CO2. The medium was removed by aspiration, and 90 μl serum-free medium and 10 μl of siRNA/peptide complex solution were added. Cells were incubated for 4 h at 37° C./5% CO2, 50 μl triple FCS medium were added, and the cells incubated for another 20 h under identical conditions. Subsequently, E6AP mRNA content was determined as described below.
For Lipofectamine2000™ transfections, 0.5 μl Lipofectamine2000™ were mixed with 12 μl OptiMem™ (Invitrogen, Karlsruhe, Germany, Cat. No. 11058-021) and incubated for 15 min. 1 μl of a 5 μM solution of the respective siRNA in PBS (Biochrom AG, Berlin, Germany, Cat-No: L182-05) were added to 11.5 μl OptiMeM™, mixed with the Lipofectamine2000™/OptiMem™ solution, and incubated for further 15 min. 1.5×10^5 HCT116-cells per well in 150 μl standard growth medium were grown for 24 h as described above, the growth medium removed from the cells by aspiration, and 75 μl fresh standard growth medium and the 25 μl of the siRNA/Lipofectamine2000™ mix were added to the well, to give a final siRNA concentration of 50 nM. The cells were incubated for 24 h at 37° C./5% CO2 and E6AP mRNA concentration determined.
The QuantiGene™ bDNA-kit from Panomics, Inc., Fremont, USA, was used according to manufacturer's instructions. Briefly, cells were lysed by adding 50 μl of Lysis Mixture (from QuantiGene bDNA-kit) to each well and incubation at 53° C. for 1 h. […]

Another data set deals with eGFP-mRNA. In words: Influence of peptide/siRNA ratio on siRNA activity in HCT116 cells. The class given is cell-based. The conditions noted are these: 250 nM siRNA. The procedure:
The optimal ratio of (peptide):(anionic substance) for complex formation, was determined in section 3 above to lie in the range of 8:1 to 13:1 by titrating a fixed concentration of the anionic substance with increasing amounts of the peptide, and monitoring complex formation by electrophoresis of the mixture. To further validate and possibly narrow down the optimum ratio of peptide/anionic substance, an assay with a functional readout was performed. HCT116 cells were incubated with siRNA complexes as described above at concentrations such that the amount of siRNA in the incubation mixture corresponds to a 250 nM concentration of the siRNA, and the peptide/siRNA ratio was 8:1, 10:1, 12:1, or 14:1.

The next data set deals with cell viability. In words: CytoTox ONE cell viability assay. Format: cell-based. The conditions noted are these: 2.5 μM peptide. On the procedure: Delivery of siRNAs was tested in 7 different cell lines we obtained from the American Type Culture Collection, ATCC, via LCG Promochem GmbH, Wesel, Germany (PC12, ATTC# CRL-1721; HCT116, ATCC# CCL-247; C33A, ATCC# HTB-31; H441, ATCC# HTB-174; NMuLi, ATCC# CRL-1638; HepG2, ATCC# HB-8065; HeLa S3, ATCC# CCL2.2) and in the cell line KB-BCL2-GFP, as described in co-pending U.S. Ser. No. 10/941,663. Target mRNA quantification was performed using the QuantiGene™ bDNA-kit from Panomics, Inc., Fremont, USA, according to the manufacturers instructions, and essentially as described below for H441 cells. Genes constitutively expressed in the various cell lines were chosen as targets and results normalized to GAPDH expression. siRNA concentration was 250 nM, the concentration of the peptide was chosen as given by the molar ratio peptide/siRNA shown in Table 1. Cytotoxicity of peptides was evaluated employing the CytoTox-ONE™ assay (Promega GmbH, Mannheim, Germany).
Potential cytotoxic effects as mediator of inhibition were ruled out by determining cell viability in the presence of 2.5 μM of ppTG20, AP-0, AP-1, AP-27, AP-30, AP32 and AP-34 using the CytoTox ONE™ assay (Promega GmbH, Mannheim, Germany).

As for GAFRAAARLLRSLWRALLRA [AP-24], the “remaining E6AP mRNA (in % of mock)” value in data set [1] worked out at 91 ± 16%.
Same read-out and setting: the value for GAFRAAARLLRSLWRLLLRA [AP-23] was 82 ± 6%.
GAFRAALRLLRSLWRLLLRA [AP-21]: the “remaining E6AP mRNA (in % of mock)” value in data set [1] is 53 ± 32%.
Regarding GAYRAALRLLRSLWRLLSRA [AP-26], the “remaining E6AP mRNA (in % of mock)” value in data set [1] was 78 ± 6%.
Still for that read-out and setting: for GLFRALARALRSLWRALARA [AP-25] the value was 83 ± 5%.
Turning to GLFRALLRLLRRLWRLLLRA [AP-3], in data set [1], the “remaining E6AP mRNA (in % of mock)” value is recorded as 43 ± 7%. The “Remaining eGFP-mRNA in % of mock-transfected controls” value with eGFP-mRNA (peptide/siRNA ratio 8:1) was determined as 39 ± 10%; with eGFP-mRNA (peptide/siRNA ratio 10:1), 32 ± 4%; with eGFP-mRNA (peptide/siRNA ratio 12:1), 40 ± 5%; in the data set with eGFP-mRNA (peptide/siRNA ratio 14:1), 40 ± 8%.
Turning to GLFRALLRLLRSLWRALARA [AP-22], the “remaining E6AP mRNA (in % of mock)” value in data set [1] came to 32 ± 14%.
“GLFRALLRLLRSLWRLLLRA [ppTG20, reference compound]”: the cell viability entry in the data set with cell viability is reported as “None of these peptides led to a significant alteration of cell viability”.
Turning to GLFRALLRLLRSLWRLLLRAHHHHH [AP-0], in the data set with cell viability, the cell viability result is recorded as “None of these peptides led to a significant alteration of cell viability”.
On to GLFRALLRLLRSLWRLLRRA [AP-2], for which the “remaining E6AP mRNA (in % of mock)” value in data set [1] is listed as 58 ± 7%. Further, the “Remaining eGFP-mRNA in % of mock-transfected controls” value in the data set on eGFP-mRNA (peptide/siRNA ratio 8:1) is given as 54 ± 6%; in the data set with eGFP-mRNA (peptide/siRNA ratio 10:1) it was 35 ± 15%; with eGFP-mRNA (peptide/siRNA ratio 12:1) it was 32 ± 11%; in the data set on eGFP-mRNA (peptide/siRNA ratio 14:1) it was 36 ± 7%.
In the case of GLFRALLRLLRSLWRLLSRA [AP-16], in data set [1], the “remaining E6AP mRNA (in % of mock)” value worked out at 43 ± 13%.
Still for that read-out and setting: the value for GLFRALLRLLRSLWRSLLRA [AP-17] was 37 ± 9%.
Still for that read-out and setting: the value for GLFRALLRLLRSLWRSLSRA [AP-18] was 49 ± 3%; that for GLFRALRRLLRSLWRLLRRA [AP-5] was 108 ± 47%; that for GLYRALLRLLRSLWRLLLRA [AP-19] was 27 ± 9%.
Consider GLYRALLRLLRSLWRLLSRA [AP-20], for which the “remaining E6AP mRNA (in % of mock)” value in data set [1] was 45 ± 6%.
